The text below walks through data of US9233077B2, “Delayed release cysteamine bead formulation, and methods of making and using same” (RAPTOR PHARMACEUTICALS INC., priority 2013, dated 2016).

This data set is described as follows: Plasma protein binding of cysteamine. In kind it is in vitro ADME. Conditions: human plasma proteins, predominantly albumin.

As to `NCCS` [cysteamine], the fraction unbound (as a rule, the share of the substance not bound to proteins or other matrix) is approximately 0.48.
